Results: paper PMC6891289 (Molecules, 2019)
Where two headings read alike, the source gives them in different places.

Tests used:
[1] = biological target: T1, acetylcholinesterase from Electrophorus electricus (electric eel) (type VI-S) (Electrophorus electricus, UniProt O42275); test: Ellman assay, […] nm, Michaelis-Menten fit; type: biochemical; conditions: no inhibitor, 0.1 to 1.6 mM substrate, phosphate buffer pH 8, 37 °C
T1 construct: gene ache; commercial native enzyme from Sigma, type VI-S lyophilized powder
T1 sequence (O42275 24-633): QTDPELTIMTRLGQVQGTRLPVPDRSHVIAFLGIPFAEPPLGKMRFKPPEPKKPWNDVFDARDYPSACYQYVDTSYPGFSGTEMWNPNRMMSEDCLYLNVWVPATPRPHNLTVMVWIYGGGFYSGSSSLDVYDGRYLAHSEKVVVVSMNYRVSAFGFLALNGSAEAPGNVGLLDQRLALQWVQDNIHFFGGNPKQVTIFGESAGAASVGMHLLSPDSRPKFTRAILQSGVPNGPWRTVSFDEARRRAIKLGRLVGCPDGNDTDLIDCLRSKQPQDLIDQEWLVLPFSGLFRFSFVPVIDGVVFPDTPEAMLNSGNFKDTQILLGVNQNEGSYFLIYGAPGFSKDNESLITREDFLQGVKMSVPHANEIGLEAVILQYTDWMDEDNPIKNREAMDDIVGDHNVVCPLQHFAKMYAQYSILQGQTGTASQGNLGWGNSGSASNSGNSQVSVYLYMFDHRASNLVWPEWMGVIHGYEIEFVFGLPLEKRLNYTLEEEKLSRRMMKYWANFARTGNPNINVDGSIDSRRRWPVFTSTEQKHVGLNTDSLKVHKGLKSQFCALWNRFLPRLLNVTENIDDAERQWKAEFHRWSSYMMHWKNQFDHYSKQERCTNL

[2] = biological target: T1, acetylcholinesterase from Electrophorus electricus (electric eel) (type VI-S); test: Ellman assay, […] nm, 4PL fit; type: biochemical
[3] = read-out: no inhibition up to 50 μg/mL

| Compound | IC50 ([2]; read-out: IC50) [µM] | IC50 [2, 3] [µM] | also measured |
| --- | --- | --- | --- |
| CC(=O)SCC[N+](C)(C)C [Acetylthiocholine chloride] | – | – | Km [1]: 330 µM |
| COc1ccc2cc3[n+](cc2c1OC)CCc1cc2c(cc1-3)OCO2 [berberine] | 2.8 | – | – |
| COc1cc(/C=C/C(=O)O)ccc1O [ferulic acid] | – | > 257 | – |
| O=C(O)c1cc(O)c(O)c(O)c1 [gallic acid] | 46.4 | – | – |
| COc1cc(C(=O)O)ccc1O [vanillic acid] | – | > 297 | – |
